pEC50: −log10 of the molar value. Entries after “also recorded” stand apart in the source; their conditions may differ.
Experiments:
[1] = In vivo pharmacokinetics: peptide content of mouse plasma by cAMP GloSensor assay; conditions: mice, subcutaneous injection, 20 nmol/kg
Method: (§1) Compound concentrations were determined by submitting plasma to a cAMP GloSensor assay, quantification of luminescence readout, and conversion to peptide concentration via standard curve. […] See also FIGS. 12A, 12B and 12C.
FIG. 12 B is a magnification of FIG. 12A to highlight the data from early time points. FIG. 12 C is a dose-response curve used to convert the raw luminescence time course found in FIG. 12A to the peptide concentration time course found in FIG. 3B. This curve was generated from a single assay run immediately before assessing the raw luminescence time course.
Blood was withdrawn just prior to injection (t=0) or at times thereafter. Tail vein blood was collected and treated with protease inhibitors (aprotinin, leupeptin, EDTA), centrifuged to remove blood cells, mixed with cAMP response assay buffer, and administered to GP2.3 cells. The raw luminescence readouts recorded in this assay were converted to blood peptide concentrations through use of a standard curve relating luminescence response to known peptide concentrations under identical assay conditions.

[2] = Calcemic response in mice after subcutaneous injection; type: in vivo; conditions: 20 nmol/kg
Method: as §1
Mice (C57BL/6, male, age 9-12 weeks) were treated in accordance with the ethical guidelines adopted by Massachusetts General Hospital. […] Blood was withdrawn just prior to injection (t=0) or at times thereafter. Tail vein blood was collected and immediately used for analysis. Blood Ca^2+ concentration was measured with a Chiron Diagnostics model 634 Ca^2+/pH analyzer.

rPTHR-1 = target: T1, rPTHR-1 (Rattus norvegicus, UniProt P25961); assay: Washout assay of cAMP response in GR-35 cells; type: cell-based; conditions: for AUC-on / AUC-washout / AUC Ratio: Table 11; for AUC-on: luminescence AUC in the 14 minutes before washout, PTH(1-34), D6, M-PTH(1-34) 0.3 nM, B5 3 nM; for AUC-washout: luminescence AUC in the 120 minutes following washout; for AUC Ratio: ratio of AUC-washout to AUC-on; for cAMP response following washout, in words: rPTHR-1-expressing cells, relative to PTH(1-34)
T1 construct: expressed in transfected cells
T1 sequence (P25961 27-591): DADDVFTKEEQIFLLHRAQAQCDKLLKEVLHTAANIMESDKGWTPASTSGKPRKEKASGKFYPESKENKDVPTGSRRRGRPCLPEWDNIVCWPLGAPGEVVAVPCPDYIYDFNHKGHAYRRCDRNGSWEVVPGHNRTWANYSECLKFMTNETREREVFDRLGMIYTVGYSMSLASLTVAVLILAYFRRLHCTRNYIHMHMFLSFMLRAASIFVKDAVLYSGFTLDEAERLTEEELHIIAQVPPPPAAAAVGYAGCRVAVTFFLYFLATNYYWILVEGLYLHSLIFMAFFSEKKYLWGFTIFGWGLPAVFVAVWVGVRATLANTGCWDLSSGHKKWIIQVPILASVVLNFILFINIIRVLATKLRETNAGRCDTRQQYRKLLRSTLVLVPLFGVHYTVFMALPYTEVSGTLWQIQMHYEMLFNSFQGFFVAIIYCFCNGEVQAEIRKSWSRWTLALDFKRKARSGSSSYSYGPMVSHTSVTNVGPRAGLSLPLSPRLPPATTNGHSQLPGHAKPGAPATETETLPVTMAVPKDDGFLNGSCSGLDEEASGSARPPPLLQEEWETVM
Method: FIGS. 11A and 11B present the results of rPTHR-1 washout experiments. Assays of cAMP accumulation were performed using HEK-293-derived cell lines stably transfected to express the luciferase-based cAMP GloSensor™-brand protein along with WT-rPTHR-1 (GR-35 cells). Data are means (±SEM) of n=3 (M-PTH) or n=5 experiments, each performed in quadruplicate. […] Ligand was applied and luminescence was recorded for 14 minutes thereafter. FIG. 11B depicts data for the accumulation of cAMP following ligand wash-out in cells expressing the rPTHR-1. The cells from FIG. 11A were removed from the plate reader at the end of the 14-min “ligand-on” phase, rinsed twice to remove unbound ligand, treated with fresh medium containing luciferin, and luminescence was again recorded for an additional 120 min of “wash-out.” Luminescence was recorded using a PerkinElmer Envision plate reader; cells were preloaded with luciferin for 30 min before ligand addition.
HEK293 cell monolayers expressing rat PTHR-1 (GR35 cells) were treated with ligand in for 14 minutes. This buffer was then discarded, and the cell monolayer was rinsed (2×). Buffer containing luciferin was introduced for 120 minutes. Luminescence response was recorded before and after washout, with luminescence readings recorded every 2 minutes. The area under the curve (AUC) for luminescence response curve was determined using GraphPad Prism. See […] for a graphs depicting the average of n=3 (M-PTH) or n=5 washout experiments. See Table 11 for a description of composite data from n=3 or 5 washout experiments.
Data were processed by using the Microsoft Excel and GraphPad Prism 4.0 software packages. Data from binding and cAMP dose-response assays were analyzed using a sigmoidal dose-response model with variable slope. Washout responses were assessed by quantifying the area under the luminescence response curve (AUC) following washout. Post-washout AUC was normalized by dividing the post-washout AUC by the pre-washout AUC. Paired data sets were statistically compared by using Student's t test (two-tailed) assuming unequal variances for the two sets.

PTH2R/PTH1R = assay: cAMP response selectivity between PTH2R and PTH1R; type: cell-based; conditions: most selective; for cAMP response PTH1R/PTH2R: Table 17
Text: Selected analogs containing beta-amino acid substitutions selectively signal through one or the other of the two receptors. Without being bound to any underling biological phenomenon or mechanism, PTHR-2 likely serves an alternative function to PTHR-1 as it is highly expressed in the central nervous system. In contrast, PTHR-1 is highly expressed in bone and kidney, but not in the CNS. The analogs disclosed herein are thus useful as therapeutic compounds that a specific agonists or antagonists of PTHR-1 and PTHR-2.

WT rat PTHR-1 = target: T2, WT rat PTHR-1 (Rattus norvegicus, UniProt P25961); assay: cAMP GloSensor dose-response in GR-35 cells expressing rat PTHR-1; type: cell-based; conditions: for cAMP (rPTHR-1) Max / pEC50: Table 2; for cAMP (rPTHR-1) Max: luminescence counts per second relative to PTH(1-34); for cAMP (rPTHR-1) Max / Max: 12-16 minutes after ligand addition; for pEC50: read-out: cAMP (rPTHR-1) EC50; for Fold nM PTH(1-34) / Max: Table 7; for Fold nM PTH(1-34): EC50 relative to PTH(1-34); for Max: GR-35 cells, mean ± SEM
T2 construct: expressed in transfected cells
T2 sequence (P25961 27-591): T1 sequence (P25961 27-591)

SMILES	level / persistence in the mouse bloodstream [1]	calcemic response (blood Ca^2+ concentration) [2]	AUC-on (rPTHR-1)	AUC-washout (rPTHR-1)	AUC Ratio (rPTHR-1)	cAMP response following washout, in words (rPTHR-1)	cAMP response PTH1R/PTH2R (PTH2R/PTH1R)	cAMP (rPTHR-1) Max (WT rat PTHR-1)	pEC50 (WT rat PTHR-1)	Fold nM PTH(1-34) (WT rat PTHR-1)	Max (WT rat PTHR-1)	cAMP response PTH2R/PTH1R (PTH2R/PTH1R; Table 16)
CC[C@H](C)[C@H](NC(=O)[C@H](CCC(=O)O)NC(=O)[C@H](CO)NC(=O)[C@@H](NC(=O)[C@@H](N)CO)C(C)C)C(=O)N[C@@H](CCC(N)=O)C(=O)N[C@@H](CC(C)C)C(=O)N[C@@H](CCSC)C(=O)N[C@@H](Cc1c[nH]cn1)C(=O)N[C@@H](CC(N)=O)C(=O)N[C@@H](CC(C)C)C(=O)NCC(=O)N[C@@H](CCCCN)C(=O)N[C@@H](Cc1c[nH]cn1)C(=O)N[C@@H](CC(C)C)C(=O)N[C@@H](CC(N)=O)CC(=O)N[C@@H](CO)C(=O)N[C@@H](CCSC)C(=O)N[C@@H](CCC(=O)O)C(=O)N[C@@H](CCCNC(=N)N)CC(=O)N[C@H](C(=O)N[C@@H](CCC(=O)O)C(=O)N[C@@H](Cc1c[nH]c2ccccc12)C(=O)N[C@H](CC(=O)N[C@@H](CCCNC(=N)N)C(=O)N[C@@H](CCCCN)C(=O)N[C@@H](CCCCN)C(=O)N[C@H](CC(=O)N[C@@H](CCC(N)=O)C(=O)N[C@@H](CC(=O)O)C(=O)N[C@H](C(=O)N[C@@H](CCC(N)=O)CC(=O)N[C@@H](CC(N)=O)C(=O)N[C@@H](Cc1ccccc1)C(N)=O)C(C)C)CC(C)C)CC(C)C)C(C)C [B5]	prolonged bioavailability	more transient rise in Ca^2+ concentration relative to PTH(1-34)	130,000 ± 50,000	84,000 ± 23,000	0.80 ± 0.16	short-lived cAMP response	43	0.78	8.84	3.49	51 ± 21 luminescence counts per second × 10−3	–
CC[C@H](C)[C@H](NC(=O)[C@H](CCC(=O)O)NC(=O)[C@H](CO)NC(=O)[C@@H](NC(=O)[C@@H](N)CO)C(C)C)C(=O)N[C@@H](CCC(N)=O)C(=O)N[C@@H](CC(C)C)C(=O)N[C@@H](CCSC)C(=O)N[C@@H](Cc1cnc[nH]1)C(=O)N[C@@H](CC(N)=O)C(=O)N[C@@H](CC(C)C)C(=O)NCC(=O)N[C@@H](CCCCN)C(=O)N[C@H](CC(=O)N[C@@H](CC(C)C)C(=O)N[C@@H](CC(N)=O)C(=O)N[C@@H](CO)C(=O)N[C@@H](CCSC)CC(=O)N[C@@H](CCC(=O)O)C(=O)N[C@@H](CCCNC(=N)N)C(=O)N[C@H](C(=O)N[C@@H](CCC(=O)O)CC(=O)N[C@@H](Cc1c[nH]c2ccccc12)C(=O)N[C@@H](CC(C)C)C(=O)N[C@@H](CCCNC(=N)N)C(=O)N[C@@H](CCCCN)CC(=O)N[C@@H](CCCCN)C(=O)N[C@@H](CC(C)C)C(=O)N[C@@H](CCC(N)=O)C(=O)N[C@@H](CC(=O)O)CC(=O)N[C@H](C(=O)N[C@@H](Cc1cnc[nH]1)C(=O)N[C@@H](CC(N)=O)C(=O)N[C@H](CC(N)=O)Cc1ccccc1)C(C)C)C(C)C)Cc1c[nH]c2ccccc12 [D6]	persists even longer in the bloodstream than does B5; also recorded: persists much longer in the mouse bloodstream than does PTH(1-34)	sustained, with no diminution six hours after injection	100,000 ± 36,000	130,000 ± 37,000	1.50 ± 0.35	comparable to that of PTH(1-34)	33	0.76	9.48	0.79	50 ± 15 luminescence counts per second × 10−3	–
CC[C@H](C)[C@H](NC(=O)[C@H](CCC(=O)O)NC(=O)[C@H](CO)NC(=O)[C@@H](NC(=O)[C@@H](N)CO)C(C)C)C(=O)N[C@@H](CCC(N)=O)C(=O)N[C@@H](CC(C)C)C(=O)N[C@@H](CCSC)C(=O)N[C@@H](Cc1cnc[nH]1)C(=O)N[C@@H](CC(N)=O)C(=O)N[C@@H](CC(C)C)C(=O)NCC(=O)N[C@@H](CCCCN)C(=O)N[C@@H](Cc1cnc[nH]1)C(=O)N[C@@H](CC(C)C)C(=O)N[C@@H](CC(N)=O)C(=O)N[C@@H](CO)C(=O)N[C@@H](CCSC)C(=O)N[C@@H](CCC(=O)O)C(=O)N[C@@H](CCCN=C(N)N)C(=O)N[C@H](C(=O)N[C@@H](CCC(=O)O)C(=O)N[C@@H](Cc1c[nH]c2ccccc12)C(=O)N[C@@H](CC(C)C)C(=O)N[C@@H](CCCN=C(N)N)C(=O)N[C@@H](CCCCN)C(=O)N[C@@H](CCCCN)C(=O)N[C@@H](CC(C)C)C(=O)N[C@@H](CCC(N)=O)C(=O)N[C@@H](CC(=O)O)C(=O)N[C@H](C(=O)N[C@@H](Cc1cnc[nH]1)C(=O)N[C@@H](CC(N)=O)C(=O)N[C@@H](Cc1ccccc1)C(=O)O)C(C)C)C(C)C [PTH(1-34), reference compound]	consistently lower than the level of B5	transient rise in the blood concentration of Ca^2+, which peaks after about one hour	92,000 ± 34,000	100,000 ± 25,000	–	–	0.9	1.00	–	–	65 ± 31 luminescence counts per second × 10−3	1.1

From patent US10501518B2 (priority 2013, dated 2019)
